Test results reported in the supplement of paper PMC10331698.
± gives the standard deviation of the averaged measurements.

Legend:
Experiment in all cases: level (log10 ratio to DMSO vehicle control); higher = higher biomarker level / cell amount than vehicle control
[1] = compound: C=CC(=O)OCCC(F)(F)C(F)(F)C(F)(F)C(F)(F)C(F)(F)C(F)(F)C(F)(F)C(F)(F)F [8:2 Fluorotelomer acrylate]; conditions: in DMSO
Description: (§1)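 BioMAP Diversity Plus panel of 12 human primary cell co-culture systems (3C, 4H, LPS, SAg, BT, BF4T, BE3C, CASM3C, HDF3CGF, KF3CT, MyoF, Mphg). Compounds were added 1 h before stimulation and left for 24 h (MyoF 48 h; BT 72 h for soluble read-outs or 6 d for IgG). Biomarkers were read by ELISA, cytotoxicity by SRB, PBMC viability and proliferation by Alamar Blue. Each well value was divided by the mean of 8 DMSO control wells on the same plate and log10 transformed; duplicate blinded samples were tested at 4 concentrations.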

[2] = compound: Cc1ccc(S(=O)(=O)OCC(F)(F)C(F)(F)C(F)(F)C(F)(F)C(F)(F)C(F)F)cc1 [1H,1H,7H-Perfluoroheptyl 4-methylbenzenesulfonate]; conditions: in DMSO
Description: as §1

[3] = compound: OCCCCC(F)(F)C(F)(F)C(F)(F)C(F)(F)F [4:4 Fluorotelomer alcohol]; conditions: in DMSO
Description: as §1

[4] = compound: C=CC(=O)OCC(F)(F)C(F)(F)C(F)(F)C(F)(F)COC(=O)C=C [1H,1H,6H,6H-Perfluorohexane-1,6-diol diacrylate]; conditions: 6700 nM; in DMSO
Description: as §1

[5] = compound: O=S(=O)(O)CCC(F)(F)C(F)(F)C(F)(F)C(F)(F)F [4:2 Fluorotelomer sulfonic acid]; conditions: in DMSO
Description: as §1

[6] = compound: OCC(F)(F)C(F)(F)C(F)(F)C(F)(F)C(F)(F)C(F)(F)F [6:1 Fluorotelomer alcohol]; conditions: in DMSO
Description: as §1

[7] = compound: O=C(O)C(F)(F)C(F)(F)C(F)(F)C(F)(F)C(F)(F)C(F)(F)C(F)(F)F [Ammonium perfluorooctanoate]; conditions: in DMSO
Description: as §1

How did the “level (log10)” value ([1]; 6700 nM) turn out when lMphg:IL-1alpha was run?
Its value is -0.012.

And the “level (log10)” value ([1]; 20000 nM)?
Its value is -0.007 ± 0.021.

And the “level (log10)” value ([1]; 60000 nM)?
The value was 0.035 ± 0.059.

And the “level (log10)” value ([2]; 6700 nM)?
Its value is -0.034 ± 0.017.

And the “level (log10)” value ([2]; 20000 nM)?
Its value is -0.036 ± 0.042.

What about the “level (log10)” value ([2]; 60000 nM) of the same test system?
The value was 0.033 ± 0.099.

What about the “level (log10)” value ([3]; 6700 nM) of the same test system?
The value was -0.0075 ± 0.005.

What about the “level (log10)” value ([3]; 20000 nM) of the same test system?
The value was -0.0125 ± 0.005.

And the “level (log10)” value ([3]; 60000 nM)?
Its value is 0.0115 ± 0.015.

What about the “level (log10)” value [4] of the same test system?
The value was 0.0245 ± 0.057.

And the “level (log10)” value ([5]; 6700 nM)?
Its value is 0.026 ± 0.048.

What about the “level (log10)” value ([5]; 20000 nM) of the same test system?
The value was 0.0125 ± 0.032.

And the “level (log10)” value ([5]; 60000 nM)?
The value was 0.007 ± 0.021.

And the “level (log10)” value ([6]; 6700 nM)?
The value was 0.007 ± 0.04.

What about the “level (log10)” value ([6]; 20000 nM) of the same test system?
Its value is 0.006 ± 0.061.

What about the “level (log10)” value ([6]; 60000 nM) of the same test system?
Its value is 0.001 ± 0.034.

And the “level (log10)” value ([7]; 6700 nM)?
Its value is 0.0005 ± 0.026.

And the “level (log10)” value ([7]; 20000 nM)?
The value was 0.0005 ± 0.0064.

What about the “level (log10)” value ([7]; 60000 nM) of the same test system?
Its value is 0.004 ± 0.014.

lMphg:M-CSF was tested. Which “level (log10)” value ([1]; 6700 nM) did it give?
Its value is -0.0195 ± 0.042.

And the “level (log10)” value ([1]; 20000 nM)?
The value was -0.013 ± 0.014.

What about the “level (log10)” value ([1]; 60000 nM) of the same test system?
Its value is -0.003 ± 0.016.

What about the “level (log10)” value ([2]; 6700 nM) of the same test system?
The value was -0.0295 ± 0.005.

And the “level (log10)” value ([2]; 20000 nM)?
The value was -0.0305 ± 0.0035.

And the “level (log10)” value ([2]; 60000 nM)?
Its value is -0.016.

And the “level (log10)” value ([3]; 6700 nM)?
The value was -0.0185 ± 0.019.

What about the “level (log10)” value ([3]; 20000 nM) of the same test system?
Its value is -0.0095 ± 0.0035.

What about the “level (log10)” value ([3]; 60000 nM) of the same test system?
The value was 0.0105 ± 0.042.

And the “level (log10)” value [4]?
Its value is -0.0105 ± 0.015.

What about the “level (log10)” value ([5]; 6700 nM) of the same test system?
Its value is -0.0105 ± 0.0078.

And the “level (log10)” value ([5]; 20000 nM)?
Its value is -0.024 ± 0.0099.

And the “level (log10)” value ([5]; 60000 nM)?
Its value is -0.0175 ± 0.0035.

What about the “level (log10)” value ([6]; 6700 nM) of the same test system?
The value was -0.023 ± 0.028.

And the “level (log10)” value ([6]; 20000 nM)?
The value was -0.0415 ± 0.035.

And the “level (log10)” value ([6]; 60000 nM)?
The value was -0.0285 ± 0.029.

What about the “level (log10)” value ([7]; 6700 nM) of the same test system?
Its value is -0.018 ± 0.0099.

What about the “level (log10)” value ([7]; 20000 nM) of the same test system?
The value was -0.018 ± 0.037.

And the “level (log10)” value ([7]; 60000 nM)?
Its value is 0.0055 ± 0.0021.

Which results are given for lMphg:SRB?
level (log10) ([1]; 6700 nM): -0.003 ± 0.0085; level (log10) ([1]; 20000 nM): -0.0105 ± 0.016; level (log10) ([1]; 60000 nM): -0.004 ± 0.034; level (log10) ([2]; 6700 nM): 0.004 ± 0.013; level (log10) ([2]; 20000 nM): -0.002 ± 0.0042; level (log10) ([2]; 60000 nM): -0.0055 ± 0.00071; level (log10) ([3]; 6700 nM): -0.015 ± 0.0028; level (log10) ([3]; 20000 nM): -0.0055 ± 0.0035; level (log10) ([3]; 60000 nM): 0.004 ± 0.033; level (log10) [4]: -0.0075 ± 0.0035; level (log10) ([5]; 6700 nM): -0.0035 ± 0.00071; level (log10) ([5]; 20000 nM): 0.004 ± 0.0042; level (log10) ([5]; 60000 nM): -0.001 ± 0.0042; level (log10) ([6]; 6700 nM): -0.001 ± 0.0099; level (log10) ([6]; 20000 nM): -0.001 ± 0.0028; level (log10) ([6]; 60000 nM): -0.0005 ± 0.0092; level (log10) ([7]; 6700 nM): -0.0125 ± 0.0035; level (log10) ([7]; 20000 nM): -0.004 ± 0.0028; level (log10) ([7]; 60000 nM): 0.0015 ± 0.005

What does the source list for lMphg:SRB-Mphg?
level (log10) ([1]; 6700 nM): -0.026 ± 0.0014; level (log10) ([1]; 20000 nM): -0.012 ± 0.021; level (log10) ([1]; 60000 nM): 0.003 ± 0.037; level (log10) ([2]; 6700 nM): 0.033 ± 0.0028; level (log10) ([2]; 20000 nM): -0.013 ± 0.03; level (log10) ([2]; 60000 nM): 0.0155 ± 0.036; level (log10) ([3]; 6700 nM): 0.008 ± 0.016; level (log10) ([3]; 20000 nM): -0.009 ± 0.0057; level (log10) ([3]; 60000 nM): -0.01 ± 0.0085; level (log10) [4]: -0.0115 ± 0.084; level (log10) ([5]; 6700 nM): -0.004; level (log10) ([5]; 20000 nM): 0.01; level (log10) ([5]; 60000 nM): 0.0065 ± 0.016; level (log10) ([6]; 6700 nM): -0.0015 ± 0.0064; level (log10) ([6]; 20000 nM): -0.02 ± 0.014; level (log10) ([6]; 60000 nM): -0.0595 ± 0.054; level (log10) ([7]; 6700 nM): -0.0045 ± 0.0092; level (log10) ([7]; 20000 nM): 0.006 ± 0.0057; level (log10) ([7]; 60000 nM): -0.007 ± 0.02

Which results are given for lMphg:sIL-10?
level (log10) ([1]; 6700 nM): -0.058 ± 0.016; level (log10) ([1]; 20000 nM): -0.014 ± 0.062; level (log10) ([1]; 60000 nM): -0.0465 ± 0.012; level (log10) ([2]; 6700 nM): -0.194 ± 0.063; level (log10) ([2]; 20000 nM): -0.0825 ± 0.14; level (log10) ([2]; 60000 nM): -0.0155 ± 0.091; level (log10) ([3]; 6700 nM): -0.096 ± 0.11; level (log10) ([3]; 20000 nM): -0.032 ± 0.0028; level (log10) ([3]; 60000 nM): -0.014 ± 0.041; level (log10) [4]: -0.067 ± 0.014; level (log10) ([5]; 6700 nM): 0.015 ± 0.041; level (log10) ([5]; 20000 nM): -0.0485 ± 0.032; level (log10) ([5]; 60000 nM): -0.0545 ± 0.0064; level (log10) ([6]; 6700 nM): 0.0065 ± 0.073; level (log10) ([6]; 20000 nM): -0.0215 ± 0.013; level (log10) ([6]; 60000 nM): -0.023 ± 0.0071; level (log10) ([7]; 6700 nM): -0.0655 ± 0.049; level (log10) ([7]; 20000 nM): -0.042 ± 0.021; level (log10) ([7]; 60000 nM): -0.16 ± 0.028
